Data from patent US9439432B2, “Phenylisoxazoline-based compound having herbicidal activity and use thereof” (MOGHU RESEARCH CENTER LTD, priority 2011, dated 2016).

Assays:
Assay type in all cases: in vivo
[1] = system: Alopecurus myosuroides; assay: Post-emergence treatment, herbicidal efficacy on blackgrass; conditions: 4 weeks after spraying, scale 0 to 10
Procedure: (§1) A rectangular plastic pot having a surface area of 300 cm^2 was filled with sandy loam soil and mixed bed soil which were mixed at a ratio of 1:1, and then, barnyardrass (Echinochloa crusgalli), large crabgrass (Digitaria sanguinalis), blackgrass (Alopecurus myosuroides), and annual bluegrass (Poa annua), which are grass weeds, were seeded thereto. In a pot that was prepared as described above, seeds of corn, soybean, cotton, wheat, and rice were seeded. The pots were irrigated, and one day after, chemicals were sprayed thereto. The spraying was performed by using a track sprayer (R&D Sprayer, USA) equipped with a Teejet 8002 (Spraying Systems Co., USA) nozzle, and a spraying amount was adjusted at 300 L/ha. A spraying solution was prepared by dissolving test materials or references in acetone and adding the same amount of 0.2%(v/v) tween 20 aqueous solution thereto. Application rates were 500, 250, 125, and 62.5 g/ha. The pots were placed in a greenhouse in which during day, the temperature was maintained at a temperature of 25 to 30° C., and during night, the temperature was maintained at a temperature of 15 to 25° C., and the pots were periodically irrigated. Four weeks after the spraying the test materials or References, effects and phytotoxicity of the respective weeds and crops were evaluated in a scale of 0 to 10 (0: no effects, 10: complete death), and results thereof are shown in Table 4 below.
(§2) Pots containing crops and weeds were prepared in the same manner as in Example 7, and then, in the second week in which crops and weeds entered into about 3 leaf stage, the test materials and the references were sprayed thereto in the same manner as described above. The rates were 1,000, 500, 250, and 125 g/ha. Four weeks after the spraying of the test materials or the references, herbicidal efficacy and phytotoxicity to the respective weeds and crops were evaluated in a scale of 0 to 10 (0: no effects, 10: complete death).

[2] = system: Corn; assay: Pre-emergence treatment, phytotoxicity to corn; conditions: 500 g/ha, 4 weeks after spraying, scale 0 to 10 (0: no effects, 10: complete death)
Procedure: as §1

[3] = system: Corn; assay: Post-emergence treatment, phytotoxicity to corn; conditions: post-emergence (about 3 leaf stage), 1,000 g/ha, 4 weeks after spraying, scale 0 to 10 (0: no effects, 10: complete death)
Procedure: as §1, §2

[4] = system: Echinochloa crusgalli; assay: Pre-emergence treatment, herbicidal efficacy on barnyardgrass; conditions: 4 weeks after spraying
Procedure: as §1

[5] = system: Cotton; assay: Pre-emergence treatment, phytotoxicity to cotton; conditions: 500 g/ha, 4 weeks after spraying, scale 0 to 10 (0: no effects, 10: complete death)
Procedure: as §1

[6] = system: Rice; assay: Pre-emergence treatment, phytotoxicity to rice; conditions: 500 g/ha, 4 weeks after spraying, scale 0 to 10 (0: no effects, 10: complete death)
Procedure: as §1

[7] = system: Soybean; assay: Pre-emergence treatment, phytotoxicity to soybean; conditions: 500 g/ha, 4 weeks after spraying, scale 0 to 10 (0: no effects, 10: complete death)
Procedure: as §1

[8] = system: Poa annua; assay: Pre-emergence treatment, herbicidal efficacy on annual bluegrass; conditions: 4 weeks after spraying, scale 0 to 10
Procedure: as §1

[9] = system: Alopecurus myosuroides; assay: Pre-emergence treatment, herbicidal efficacy on blackgrass; conditions: 4 weeks after spraying, scale 0 to 10
Procedure: as §1

[10] = system: Echinochloa crusgalli; assay: Post-emergence treatment, herbicidal efficacy on barnyardgrass; conditions: 4 weeks after spraying, scale 0 to 10
Procedure: as §1, §2

[11] = system: Digitaria sanguinalis; assay: Pre-emergence treatment, herbicidal efficacy on large crabgrass; conditions: 4 weeks after spraying, scale 0 to 10
Procedure: as §1

[12] = system: Wheat; assay: Pre-emergence treatment, phytotoxicity to wheat; conditions: 500 g/ha, 4 weeks after spraying, scale 0 to 10 (0: no effects, 10: complete death)
Procedure: as §1

[13] = system: Cotton; assay: Post-emergence treatment, phytotoxicity to cotton; conditions: post-emergence (about 3 leaf stage), 1,000 g/ha, 4 weeks after spraying, scale 0 to 10 (0: no effects, 10: complete death)
Procedure: as §1, §2

[14] = system: Wheat; assay: Post-emergence treatment, phytotoxicity to wheat; conditions: post-emergence (about 3 leaf stage), 1,000 g/ha, 4 weeks after spraying, scale 0 to 10 (0: no effects, 10: complete death)
Procedure: as §1, §2

[15] = system: Soybean; assay: Post-emergence treatment, phytotoxicity to soybean; conditions: post-emergence (about 3 leaf stage), 1,000 g/ha, 4 weeks after spraying, scale 0 to 10 (0: no effects, 10: complete death)
Procedure: as §1, §2

[16] = system: Poa annua; assay: Post-emergence treatment, herbicidal efficacy on annual bluegrass; conditions: 4 weeks after spraying, scale 0 to 10
Procedure: as §1, §2

[17] = system: Rice; assay: Post-emergence treatment, phytotoxicity to rice; conditions: post-emergence (about 3 leaf stage), 1,000 g/ha, 4 weeks after spraying, scale 0 to 10 (0: no effects, 10: complete death)
Procedure: as §1, §2

[18] = system: Digitaria sanguinalis; assay: Post-emergence treatment, herbicidal efficacy on large crabgrass; conditions: 4 weeks after spraying, scale 0 to 10
Procedure: as §1, §2

[19] = 500 g/ha, scale 0 to 10 (0: no effects, 10: complete death)

SMILES: Cc1ccccc1C1=NOC(C)(COCc2ccccc2F)C1 (stereo not drawn) [Reference D]
- Herbicidal efficacy, Alopecurus myosuroides ([1]; post-emergence, 125 g/ha): 0
- Herbicidal efficacy, Alopecurus myosuroides ([1]; post-emergence, 250 g/ha): 0
- Herbicidal efficacy, Alopecurus myosuroides ([1]; post-emergence, 500 g/ha): 3
- Herbicidal efficacy, Alopecurus myosuroides ([1]; post-emergence, 1,000 g/ha): 4
- Phytotoxicity, Corn [2]: 0
- Phytotoxicity, Corn [3]: 0
- Herbicidal efficacy, Echinochloa crusgalli ([4]; 62.5 g/ha, scale 0 to 10): 1
- Herbicidal efficacy, Echinochloa crusgalli ([4]; 125 g/ha, scale 0 to 10): 3
- Herbicidal efficacy, Echinochloa crusgalli ([4]; 250 g/ha, scale 0 to 10): 6
- Herbicidal efficacy, Echinochloa crusgalli [4, 19]: 10
- Phytotoxicity, Cotton [5]: 0
- Phytotoxicity, Rice [6]: 0
- Phytotoxicity, Soybean [7]: 0
- Herbicidal efficacy, Poa annua ([8]; 62.5 g/ha): 0
- Herbicidal efficacy, Poa annua ([8]; 125 g/ha): 2
- Herbicidal efficacy, Poa annua ([8]; 250 g/ha): 5
- Herbicidal efficacy, Poa annua ([8]; 500 g/ha): 8
- Herbicidal efficacy, Alopecurus myosuroides ([9]; 62.5 g/ha): 0
- Herbicidal efficacy, Alopecurus myosuroides ([9]; 125 g/ha): 0
- Herbicidal efficacy, Alopecurus myosuroides ([9]; 250 g/ha): 3
- Herbicidal efficacy, Alopecurus myosuroides ([9]; 500 g/ha): 9
- Herbicidal efficacy, Echinochloa crusgalli ([10]; post-emergence, 125 g/ha): 0
- Herbicidal efficacy, Echinochloa crusgalli ([10]; post-emergence, 250 g/ha): 0
- Herbicidal efficacy, Echinochloa crusgalli ([10]; post-emergence, 500 g/ha): 1
- Herbicidal efficacy, Echinochloa crusgalli ([10]; post-emergence, 1,000 g/ha): 4
- Herbicidal efficacy, Digitaria sanguinalis ([11]; 62.5 g/ha): 0
- Herbicidal efficacy, Digitaria sanguinalis ([11]; 125 g/ha): 2
- Herbicidal efficacy, Digitaria sanguinalis ([11]; 250 g/ha): 6
- Herbicidal efficacy, Digitaria sanguinalis ([11]; 500 g/ha): 10
- Phytotoxicity, Wheat [12]: 0
- Phytotoxicity, Cotton [13]: 0
- Phytotoxicity, Wheat [14]: 0
- Phytotoxicity, Soybean [15]: 0
- Herbicidal efficacy, Poa annua ([16]; post-emergence, 125 g/ha): 0
- Herbicidal efficacy, Poa annua ([16]; post-emergence, 250 g/ha): 0
- Herbicidal efficacy, Poa annua ([16]; post-emergence, 500 g/ha): 2
- Herbicidal efficacy, Poa annua ([16]; post-emergence, 1,000 g/ha): 5
- Phytotoxicity, Rice [17]: 0
- Herbicidal efficacy, Digitaria sanguinalis ([18]; post-emergence, 125 g/ha): 0
- Herbicidal efficacy, Digitaria sanguinalis ([18]; post-emergence, 250 g/ha): 0
- Herbicidal efficacy, Digitaria sanguinalis ([18]; post-emergence, 500 g/ha): 4
- Herbicidal efficacy, Digitaria sanguinalis ([18]; post-emergence, 1,000 g/ha): 7

SMILES: Cc1ccccc1C1=NOC(C)(COCc2c(F)cccc2Cl)C1 (stereo not drawn) [Reference E]
- Herbicidal efficacy, Alopecurus myosuroides ([1]; post-emergence, 125 g/ha): 0
- Herbicidal efficacy, Alopecurus myosuroides ([1]; post-emergence, 250 g/ha): 0
- Herbicidal efficacy, Alopecurus myosuroides ([1]; post-emergence, 500 g/ha): 2
- Herbicidal efficacy, Alopecurus myosuroides ([1]; post-emergence, 1,000 g/ha): 4
- Phytotoxicity, Corn [2]: 0
- Phytotoxicity, Corn [3]: 3
- Herbicidal efficacy, Echinochloa crusgalli ([4]; 62.5 g/ha, scale 0 to 10): 2
- Herbicidal efficacy, Echinochloa crusgalli ([4]; 125 g/ha, scale 0 to 10): 5
- Herbicidal efficacy, Echinochloa crusgalli ([4]; 250 g/ha, scale 0 to 10): 8
- Herbicidal efficacy, Echinochloa crusgalli [4, 19]: 10
- Phytotoxicity, Cotton [5]: 0
- Phytotoxicity, Rice [6]: 0
- Phytotoxicity, Soybean [7]: 0
- Herbicidal efficacy, Poa annua ([8]; 62.5 g/ha): 2
- Herbicidal efficacy, Poa annua ([8]; 125 g/ha): 5
- Herbicidal efficacy, Poa annua ([8]; 250 g/ha): 9
- Herbicidal efficacy, Poa annua ([8]; 500 g/ha): 10
- Herbicidal efficacy, Alopecurus myosuroides ([9]; 62.5 g/ha): 0
- Herbicidal efficacy, Alopecurus myosuroides ([9]; 125 g/ha): 0
- Herbicidal efficacy, Alopecurus myosuroides ([9]; 250 g/ha): 4
- Herbicidal efficacy, Alopecurus myosuroides ([9]; 500 g/ha): 9
- Herbicidal efficacy, Echinochloa crusgalli ([10]; post-emergence, 125 g/ha): 0
- Herbicidal efficacy, Echinochloa crusgalli ([10]; post-emergence, 250 g/ha): 2
- Herbicidal efficacy, Echinochloa crusgalli ([10]; post-emergence, 500 g/ha): 5
- Herbicidal efficacy, Echinochloa crusgalli ([10]; post-emergence, 1,000 g/ha): 6
- Herbicidal efficacy, Digitaria sanguinalis ([11]; 62.5 g/ha): 0
- Herbicidal efficacy, Digitaria sanguinalis ([11]; 125 g/ha): 5
- Herbicidal efficacy, Digitaria sanguinalis ([11]; 250 g/ha): 9
- Herbicidal efficacy, Digitaria sanguinalis ([11]; 500 g/ha): 10
- Phytotoxicity, Wheat [12]: 0
- Phytotoxicity, Cotton [13]: 3
- Phytotoxicity, Wheat [14]: 0
- Phytotoxicity, Soybean [15]: 1
- Herbicidal efficacy, Poa annua ([16]; post-emergence, 125 g/ha): 0
- Herbicidal efficacy, Poa annua ([16]; post-emergence, 250 g/ha): 2
- Herbicidal efficacy, Poa annua ([16]; post-emergence, 500 g/ha): 6
- Herbicidal efficacy, Poa annua ([16]; post-emergence, 1,000 g/ha): 7
- Phytotoxicity, Rice [17]: 0
- Herbicidal efficacy, Digitaria sanguinalis ([18]; post-emergence, 125 g/ha): 0
- Herbicidal efficacy, Digitaria sanguinalis ([18]; post-emergence, 250 g/ha): 1
- Herbicidal efficacy, Digitaria sanguinalis ([18]; post-emergence, 500 g/ha): 6
- Herbicidal efficacy, Digitaria sanguinalis ([18]; post-emergence, 1,000 g/ha): 7
